Numbers after ± are expanded uncertainties.

For series [1] the following is noted: 101.33 kPa, Liquid, Pycnometric method.
Series [2] can be described thus: relative permittivity at various frequencies (dimensionless). The conditions noted are these: 100 kPa, Liquid, Frequency=2 MHz, Parallel plate capacitor.
Series [3] in a line: refractive index (Na D-line) (dimensionless). Particulars: 100 kPa, Liquid, Standard Abbe refractometry.
Series [4] in a line: refractive index (Na D-line) (dimensionless); xn = mol fraction of the nth substance listed. The conditions noted are these: 100 kPa, Liquid, Standard Abbe refractometry, x1 = 1.
Series [5] in a line: relative permittivity at various frequencies (dimensionless); xn = mol fraction of the nth substance listed. The conditions noted are these: 100 kPa, Liquid, Frequency=2 MHz, Parallel plate capacitor, x1 = 1.

Take `COc1cccc(Br)c1` [1-bromo-3-methoxybenzene]: the mass density in series [1] (303.15 K) worked out at 1467.6 ± 6.1 kg/m3. Besides, the relative permittivity in series [2] (303.15 K) came to 7.01 ± 0.6; in series [2] (313.15 K) it was 6.85 ± 0.6; in series [2] (323.15 K) it was 6.74 ± 0.6; in series [2] (333.15 K), 6.6 ± 0.6. In addition, the refractive index in series [3] (303.15 K) came out at 1.56 ± 0.002; in series [3] (313.15 K) it was 1.558 ± 0.002; in series [3] (323.15 K) it was 1.553 ± 0.002; in series [3] (333.15 K), 1.55 ± 0.002.
Regarding `CCCO` [propan-1-ol], the mass density in series [1] (303.15 K) worked out at 793.9 ± 6 kg/m3; in series [1] (313.15 K), 791.7 ± 6 kg/m3; in series [1] (323.15 K) it was 784.4 ± 6 kg/m3; in series [1] (333.15 K), 775.6 ± 6 kg/m3. For the same molecule, the relative permittivity in series [2] (303.15 K) turned out to be 19.49 ± 0.6; in series [2] (313.15 K), 18.53 ± 0.6; in series [2] (323.15 K), 17.59 ± 0.6; in series [2] (333.15 K) it was 16.03 ± 0.6. Also, the refractive index was 1.383 ± 0.002 in series [3] (303.15 K), 1.38 ± 0.002 in series [3] (313.15 K), 1.376 ± 0.002 in series [3] (323.15 K) and 1.371 ± 0.002 in series [3] (333.15 K).
For `CCCO` [propan-1-ol] + COc1cccc(Br)c1, the refractive index in series [4] (303.15 K) is 1.383 ± 0.002; in series [4] (313.15 K), 1.38 ± 0.002; in series [4] (323.15 K) it was 1.376 ± 0.002; in series [4] (333.15 K) it was 1.371 ± 0.002. For the same molecule, the relative permittivity came to 19.49 ± 0.6 in series [5] (303.15 K), 18.53 ± 0.6 in series [5] (313.15 K), 17.59 ± 0.6 in series [5] (323.15 K) and 16.03 ± 0.6 in series [5] (333.15 K).
